In patent publication US7598032B2, “Thermostable DNA polymerases incorporating nucleoside triphosphates labeled with fluorescent dyes” (Roche Molecular Systems, priority 1997, dated 2009):

Key:
[1] = target: T1, Thermus aquaticus (Taq) DNA polymerase variant G46D F667Y E681K (Thermus aquaticus, UniProt P19821, E681K/F667Y/G46D); assay: Limiting template primer extension competition assay (ddNTP incorporation), G46D F667Y E681K Taq; format: biochemical
T1 construct: Expression vector pRDA3-2 contains the full-length Taq DNA polymerase gene; made in house; host or cells: E. coli DG116 (plasmid pLK113)
Description: (§1) The ability of the enzymes of this invention to efficiently incorporate nucleotides labeled with fluorescein family dyes is measured by ddNTP incorporation assays. One such assay is a primer extension competition assay conducted under conditions of limiting template. In this assay, a primer DG48 (5′-[…]), (SEQ ID NO: 11), bound to M13 mp18 template (Innis et al., 1988, Proc. Natl. Acad. Sci. USA 85:9436) is extended in the presence of [α-^33P]dCTP and excess enzyme with various levels of a fluorescently labeled ddNTP, Zowie-ddCTP. Because the incorporation of a ddCTP residue terminates the extension reaction, the more readily a DNA polymerase incorporates a ddCTP into an extended primer, the less [α-^33P]dCTP can be incorporated. Thus, as the efficiency of fluorescently labeled ddCTP incorporation increases, the extent of inhibition of DNA synthesis is increased. The reactions were also performed with various levels of an unlabeled ddCTP. […]
(§2) The relative abilities of G46D F667Y Taq, G46D F667Y E681K Taq and F730Y Tma30 DNA polymerases to incorporate a fluorescein dye family-labeled ddCTP were compared by use of a limiting template, primer extension competition assay. […] In this competition assay, because the incorporation of a ddCTP terminates the extension reaction, the more readily the polymerase incorporates a ddCTP into an extended primer, the less [α-^33P]dCTP can be incorporated. […]

[2] = target: F730Y Tma30 DNA polymerase (nucleotides 1-570 of Taq DNA polymerase with G46D fused to nucleotides 571-2679 of Tma DNA polymerase with D323A, E325A, F730Y); assay: Limiting template primer extension competition assay (ddNTP incorporation), F730Y Tma30; format: biochemical, Thermus aquaticus / Thermotoga maritima; conditions: inhibition of DNA synthesis ([α-33P]dCMP incorporation); 20 μM each dNTP, M13 mp18/DG48, pH 8.3, 10 min; 2 units enzyme; read-out: Concentration of Zowie-ddCTP or ddCTP needed for 50% inhibition
Description: as §1, §2

[3] = dye-terminator dideoxy-sequencing using rhodamine-labeled terminators; format: biochemical

Molecule	IC50 [1]	IC50 [2]	peak heights in dye-terminator dideoxy-sequencing [3]
Nc1ccn([C@H]2CC[C@@H](COP(=O)(O)OP(=O)(O)OP(=O)(O)O)O2)c(=O)n1 [ddCTP]	116 nM	57 nM	
G46D F667Y E681K Taq: thermostable Taq DNA polymerase with G46D, F667Y and E681K mutations, encoded by plasmid pLK113 (protein, UniProt P19821 1-832, looked up, variant G46D F667Y E681K) DNA polymerase I, thermostable: MRGMLPLFEPKGRVLLVDGHHLAYRTFHALKGLTTSRGEPVQAVYDFAKSLLKALKEDGDAVIVVFDAKAPSFRHEAYGGYKAGRAPTPEDFPRQLALIKELVDLLGLARLEVPGYEADDVLASLAKKAEKEGYEVRILTADKDLYQLLSDRIHVLHPEGYLITPAWLWEKYGLRPDQWADYRALTGDESDNLPGVKGIGEKTARKLLEEWGSLEALLKNLDRLKPAIREKILAHMDDLKLSWDLAKVRTDLPLEVDFAKRREPDRERLRAFLERLEFGSLLHEFGLLESPKALEEAPWPPPEGAFVGFVLSRKEPMWADLLALAAARGGRVHRAPEPYKALRDLKEARGLLAKDLSVLALREGLGLPPGDDPMLLAYLLDPSNTTPEGVARRYGGEWTEEAGERAALSERLFANLWGRLEGEERLLWLYREVERPLSAVLAHMEATGVRLDVAYLRALSLEVAEEIARLEAEVFRLAGHPFNLNSRDQLERVLFDELGLPAIGKTEKTGKRSTSAAVLEALREAHPIVEKILQYRELTKLKSTYIDPLPDLIHPRTGRLHTRFNQTATATGRLSSSDPNLQNIPVRTPLGQRIRRAFIAEEGWLLVALDYSQIELRVLAHLSGDENLIRVFQEGRDIHTETASWMFGVPREAVDPLMRRAAKTINYGVLYGMSAHRLSQKLAIPYEEAQAFIERYFQSFPKVRAWIEKTLEEGRRRGYVETLFGRRRYVPDLEARVKSVREAAERMAFNMPVQGTAADLMKLAMVKLFPRLEEMGARMLLQVHDELVLEAPKERAEAVARLAKEVMEGVYPLAVPLEVEVGIGEDWLSAKE			more uniform peak heights
